Laboratory results reported in patent EP4596548A1, “NURR1 MODULATORS” (Ludwig-Maximilians-Universität, priority 2024, dated 2025).
Values joined by “and” are separate entries in the source; they are usually repeats but may differ in a detail not shown here. Equal entries are not always repeated. “Also recorded” adds a separate entry of the source.

Legend:
Nurr1 = Nurr1 (Homo sapiens, UniProt P43354); assay: Gal4-Nurr1 hybrid reporter gene assay in HEK293T cells; type: cell-based; parameters: expressed in transfected cells; host or cells: HEK293T; details: for EC50(Nurr1) (max. activation): result in words; for EC50: Gal4-Nurr1 hybrid reporter gene assay; for EC50 / max. activation: mean±SD, n≥3; for max. activation: maximum effect vs. 0.1% DMSO control
Procedure: Hybrid reporter gene assays. Nurr1 modulation was determined in a Gal4 hybrid reporter gene assay in HEK293T cells (German Collection of Microorganisms and Cell Culture GmbH, DSMZ) using pFR-Luc (Stratagene, La Jolla, CA, USA; reporter), pRL-SV40 (Promega, Madison, WI, USA; internal control) and pFA-CMV-hNurr1-LBD^14, coding for the hinge region and ligand binding domain of the canonical isoform of human Nurr1. […] After 24 h, medium was changed to Opti-MEM without supplements and cells were transiently transfected using Lipofectamine LTX reagent (Invitrogen, Carlsbad, CA, USA) according to the manufacturer's protocol. Five hours after transfection, cells were incubated with the test compounds in Opti-MEM supplemented with penicillin (100 U/mL), streptomycin (100 µg/mL) and 0.1% DMSO for 16 h before luciferase activity was measured using the Dual-Glo Luciferase Assay System (Promega) according to the manufacturer's protocol on a Tecan Spark luminometer (Tecan Deutschland GmbH, Crailsheim, Germany). Firefly luminescence was divided by Renilla luminescence and multiplied by 1000 resulting in relative light units (RLU) to normalize for transfection efficiency and cell growth. Fold activation was obtained by dividing the mean RLU of test compound by the mean RLU of the untreated control. All samples were tested in at least three biologically independent experiments in duplicates. For dose-response curve fitting and calculation of EC50 values, the equation "[Agonist] vs. response -- Variable slope (four parameters)" was used in GraphPad Prism (version 7.00, GraphPad Software, La Jolla, CA, USA). Selectivity profiling was performed with identical procedures using pFA-CMV-Nur77-LBD^14, pFA-CMV-NOR-1-LBD^14, pFA-CMV-THRα-LBD^39, pFA-CMV-RARα-LBD^40, pFA-CMV-PPARα-LBD^41, pFA-CMV-PPARγ-LBD^41, pFA-CMV-PPARδ-LBD^41, pFA-CMV-LXRα-LBD^37, pFA-CMV-FXR-LBD^42 and pFA-CMV-hRXRα-LBD^43.

Nurr1 LBD = molecular target: T1, Nurr1 LBD (Homo sapiens, UniProt P43354); assay: Isothermal titration calorimetry (ITC); type: binding; details: ITC at 25°C
T1 construct: Nurr1 LBD protein (10-30 µM, expressed as described previously^21); made in house
Procedure: Isothermal Titration Calorimetry (ITC). ITC experiments were conducted on an Affinity ITC instrument (TA Instruments, New Castle, DE) at 25°C with a stirring rate of 75 rpm. Nurr1 LBD protein (10-30 µM, expressed as described previously^21) in buffer (20 mM Tris pH 7.5, 100 mM NaCl, 5% glycerol) containing 1-4% DMSO was titrated with the test compounds (60-150 µM in the same buffer containing 1-4% DMSO) in 26 injections (1x 1 µL, 25x 3-4 µL) with an injection interval of 150 s. As control experiments, the test compounds were titrated to the buffer, and the buffer was titrated to the Nurr1 LBD protein under otherwise identical conditions. Results were analyzed using NanoAnalyze software (version 3.11.0, TA Instruments, New Castle, DE) with independent binding models.

Nurr1, sequence (P43354 360-595 limits assumed): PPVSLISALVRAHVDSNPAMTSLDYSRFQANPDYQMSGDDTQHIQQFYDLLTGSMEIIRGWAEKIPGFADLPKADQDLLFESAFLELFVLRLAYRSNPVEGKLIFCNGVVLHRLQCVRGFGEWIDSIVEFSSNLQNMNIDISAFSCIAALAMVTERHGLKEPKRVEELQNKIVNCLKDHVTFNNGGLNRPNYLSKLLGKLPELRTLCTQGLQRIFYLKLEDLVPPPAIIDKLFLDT
T1 sequence (P43354 360-595 limits assumed): as above

Compound	EC50(Nurr1) (max. activation) (Nurr1; at 100 µM)	EC50 (Nurr1) [nM]	max. activation (Nurr1)	further results
Clc1cccn2ccnc12 [Compound 11]	inactive (100 µM)	–	–	–
Nc1c(-c2ccccc2Cl)nc2c(Cl)cccn12 [Compound 19]	inactive (100 µM)	–	–	–
Cc1nc2c(Cl)cccn2c1NC(=O)c1ccc(-c2ccccc2)cc1 [Compound 30]	–	–	–	EC50(Nurr1) (max. activation) (Nurr1; at 10 µM): inactive (10 µM)
Cc1nc2cccc(Cl)c2[nH]1 [Compound 7, 4-Chloro-2-methyl-benzimidazole]	failed to activate Nurr1; also recorded: inactive (100 µM)	–	–	–
Nc1c(-c2ccc(Cl)cc2)nc2c(Cl)cccn12 [Compound 17]	–	15000 ± 3000	1.7±0.2 fold	–
Cc1nc2c(Cl)cccn2c1NC(=O)c1ccc(-c2ccccc2)o1 [Compound 27]	–	4000 ± 1000	2.1±0.1 fold	–
Nc1c(-c2ccc(Cl)c(Cl)c2)nc2c(Cl)cccn12 [Compound 24, 8-Chloro-2-(3,4-dichlorophenyl)imidazo[1,2-a]pyridine-3-amine]	–	400	1.8 fold and 1.8±0.1 fold	Kd (Nurr1 LBD): 700 nM; increase in potency over 8 (Nurr1): 7 fold
Nc1c(-c2ccc(C(F)(F)F)cc2)nc2c(Cl)cccn12 [Compound 22]	–	–	< 1.2-fold act.	–
Nc1cnc2c(Cl)cccn12 [Compound 12, 3-Amino-8-chloroimidazo[1,2-a]pyridine]	inactive (100 µM)	–	–	–
Nc1c(-c2cccc(C(F)(F)F)c2)nc2c(Cl)cccn12 [Compound 23]	–	–	< 1.2-fold act.	–
CC(C)c1nc2c(Cl)cccn2c1N [Compound 14]	inactive	–	< 1.2 fold	–
Nc1c(-c2ccoc2)nc2c(Cl)cccn12 [Compound 16]	inactive	–	< 1.2 fold	–
Cc1nc2cc(Cl)ccn2c1N [Compound 9]	inactive (100 µM)	–	–	–
Cc1ccc(-c2ccc(C(=O)Nc3c(C)nc4c(Cl)cccn34)o2)cc1 [Compound 32]	–	130 ± 20	2.0±0.2 fold	–
Cc1nc2c(Cl)cccn2c1NC(=O)c1ccc(-c2ccc(Cl)cc2)o1 [Compound 26]	–	1600 ± 500	1.8±0.1 fold	Kd (Nurr1 LBD): 700 nM
